The text below walks through data of PubChem BioAssay (NCI).

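48-hour exposure; five concentrations; linearly interpolated endpoints. The concentration for full growth arrest is given as TGI.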

Test systems include CAKI-1 renal; U251 CNS; LOX IMVI melanoma; SK-MEL-28 melanoma; HCC-2998 colon; A498 renal; IGROV1 ovarian; RPMI-8226 leukemia; HT29 colon; HL-60(TB) leukemia; UACC-257 melanoma; SW-620 colon; CCRF-CEM leukemia; OVCAR-4 ovarian; SR leukemia; MDA-MB-231 breast; T-47D breast.
Test in all cases: growth of human tumour cells (NCI), 48 h

Regarding `COc1cc2c(cc1OC)C(C(CO)CO)N(CC(O)CCl)CC2` (configuration not stated), the TGI in the assay on CAKI-1 renal, with U251 CNS, in the assay on LOX IMVI melanoma, in the assay with SK-MEL-28 melanoma, in the assay on HCC-2998 colon and with A498 renal was > 100 µM throughout. Also, the TGI in the assay with IGROV1 ovarian, in the assay with RPMI-8226 leukemia, in the assay with HT29 colon, with HL-60(TB) leukemia, in the assay on UACC-257 melanoma and in the assay with SW-620 colon was > 100 µM throughout. Besides, the TGI with CCRF-CEM leukemia and in the assay on OVCAR-4 ovarian was > 100 µM in each case.
With `CCc1cc(Cc2cc(Cl)c(NC(=O)C(=O)C3NC(=O)NC3=O)c(CC)c2)cc(Cl)c1NC(=O)C(=O)C1NC(=O)NC1=O` (configuration not stated), the TGI with CAKI-1 renal was > 100 µM; in the assay on U251 CNS, 40.1 µM; in the assay with LOX IMVI melanoma, > 100 µM; in the assay with SK-MEL-28 melanoma it was > 100 µM; in the assay on SR leukemia it was > 100 µM; with HCC-2998 colon, > 100 µM. The TGI with A498 renal is > 100 µM; with IGROV1 ovarian, > 100 µM; in the assay with RPMI-8226 leukemia, > 100 µM; in the assay on HT29 colon it was 54 µM; in the assay on HL-60(TB) leukemia, > 100 µM; with UACC-257 melanoma, > 100 µM. The values for the TGI in the assay on SW-620 colon, in the assay with CCRF-CEM leukemia and in the assay on OVCAR-4 ovarian were 24.1 µM, > 100 µM and > 100 µM, respectively.
Regarding `CN(C)c1ccc(C(=C(c2ccc(N(C)C)cc2)c2ccc(N(C)C)cc2)c2ccc(N(C)C)cc2)cc1`, the TGI in the assay with CAKI-1 renal was determined as 28 µM; in the assay on U251 CNS, 28.1 µM; in the assay on LOX IMVI melanoma, 31.2 µM; with SK-MEL-28 melanoma, 29.4 µM; in the assay with SR leukemia, 30.8 µM; in the assay on HCC-2998 colon, 35.3 µM. For the same compound, the TGI in the assay with A498 renal was 36.8 µM; in the assay on IGROV1 ovarian, 34 µM; in the assay with RPMI-8226 leukemia, 47.6 µM; in the assay on HT29 colon, 35.2 µM; with HL-60(TB) leukemia it was 26.5 µM; with UACC-257 melanoma it was 34.8 µM. The values for the TGI in the assay on SW-620 colon, with CCRF-CEM leukemia and with OVCAR-4 ovarian were 20.8 µM, 50.4 µM and > 100 µM, respectively.
As to `Cc1c(Cl)c2ccccc2n1S(=O)(=O)c1ccccc1`, the TGI in the assay on CAKI-1 renal, in the assay on U251 CNS, in the assay on SK-MEL-28 melanoma, in the assay on SR leukemia, in the assay with HCC-2998 colon and in the assay with IGROV1 ovarian was > 100 µM in each case. The TGI with RPMI-8226 leukemia is 86 µM; in the assay with HT29 colon, > 100 µM; in the assay on HL-60(TB) leukemia it was 78.8 µM; in the assay with UACC-257 melanoma, > 100 µM; in the assay with SW-620 colon, > 100 µM; in the assay with CCRF-CEM leukemia it was > 100 µM. In addition, the TGI in the assay on OVCAR-4 ovarian was > 100 µM.
For the compound `CN1CCCC2(CCCc3ccccc32)C1` (configuration not stated), the TGI in the assay on CAKI-1 renal, in the assay with U251 CNS, in the assay with LOX IMVI melanoma, in the assay with SK-MEL-28 melanoma, in the assay on SR leukemia and in the assay on HCC-2998 colon was > 100 µM each time. The TGI in the assay on A498 renal, with IGROV1 ovarian, in the assay with RPMI-8226 leukemia, in the assay on HT29 colon, with HL-60(TB) leukemia and with UACC-257 melanoma was > 100 µM throughout. Also, the TGI in the assay on SW-620 colon, with CCRF-CEM leukemia and with OVCAR-4 ovarian was > 100 µM throughout.
On to `CCOC(=O)C1(C/C=C(/C)Cl)CCCC1=O` (configuration not stated), for which the TGI is > 100 µM in the assay on CAKI-1 renal; > 100 µM in the assay on U251 CNS; > 100 µM with LOX IMVI melanoma; > 100 µM with SK-MEL-28 melanoma; 45.7 µM in the assay on SR leukemia; > 100 µM in the assay on A498 renal. In addition, the TGI is > 100 µM in the assay on IGROV1 ovarian; 53.6 µM in the assay with RPMI-8226 leukemia; > 100 µM with HT29 colon; > 100 µM with HL-60(TB) leukemia; > 100 µM in the assay on UACC-257 melanoma; > 100 µM with CCRF-CEM leukemia. Also, the TGI in the assay with OVCAR-4 ovarian was > 100 µM.
For `Clc1ccc(SC(/C=C/NNC2=NC(c3ccccc3)C(c3ccccc3)=NN2)c2ccccc2)cc1` (configuration not stated), the TGI was 54.1 µM in the assay with CAKI-1 renal; > 100 µM in the assay on U251 CNS; 65.7 µM in the assay with LOX IMVI melanoma; 69.2 µM with SK-MEL-28 melanoma; 44.3 µM with HCC-2998 colon; > 100 µM in the assay with A498 renal. Besides, the TGI in the assay with IGROV1 ovarian is > 100 µM; in the assay on RPMI-8226 leukemia it was 30.3 µM; with HT29 colon, 39.3 µM; in the assay on HL-60(TB) leukemia, 41.9 µM; in the assay with UACC-257 melanoma, 55.2 µM; in the assay on SW-620 colon, > 100 µM. In addition, the TGI with CCRF-CEM leukemia worked out at 73.1 µM; in the assay with OVCAR-4 ovarian, 68.2 µM.
Turning to `COc1cc(C2c3cc4c(cc3[C@@H](Nc3ccccc3)C3COC[C@H]23)OCO4)cc(OC)c1O` (some centres not stated), the TGI in the assay with MDA-MB-231 breast is 24.5 µM; in the assay with U251 CNS, 16.1 µM; in the assay on SK-MEL-28 melanoma it was 39.1 µM; with SR leukemia, 16.5 µM; in the assay on HCC-2998 colon, > 100 µM; in the assay with T-47D breast it was > 100 µM. Besides, the TGI in the assay with IGROV1 ovarian was > 100 µM; in the assay with RPMI-8226 leukemia, 5.22 µM; with HT29 colon it was 45.5 µM; with UACC-257 melanoma, 50.4 µM; in the assay on SW-620 colon it was > 100 µM; in the assay with CCRF-CEM leukemia, 2.15 µM. The TGI in the assay on OVCAR-4 ovarian was > 100 µM.
As to `Cc1cccc2c(=O)c([Se]c3coc4c(C)cccc4c3=O)coc12`, the TGI was determined as 48.4 µM in the assay on CAKI-1 renal; 23.8 µM in the assay on U251 CNS; 35.5 µM in the assay on LOX IMVI melanoma; 32.5 µM with SK-MEL-28 melanoma; 79 µM with SR leukemia; 44.8 µM with HCC-2998 colon. Moreover, the TGI was 41 µM with A498 renal; 26.5 µM with IGROV1 ovarian; > 100 µM with RPMI-8226 leukemia; 61.7 µM with HT29 colon; > 100 µM in the assay with HL-60(TB) leukemia; 38.5 µM in the assay with UACC-257 melanoma. Further, the figures for the TGI in the assay with SW-620 colon, in the assay with CCRF-CEM leukemia and in the assay with OVCAR-4 ovarian were 39.1 µM, > 100 µM and 35.2 µM, respectively.
